The values below are quoted from earlier work in patent publication US6113907A, “Pharmaceutical grade St. John's Wort” (priority 1997, dated 2000).

pIC50: −log10 of the molar value. Structures can show the parent of a compound that is named as a salt.

A word on the pIC50: it is the negative decadic logarithm of the IC50, by convention in mol/L.

The conditions of data set [1]: oil preparations, exposed to light; cited from earlier work.
Data set [2] relates to bacteria, fungi. Particulars: hyperforin, adhyperforin: dilutions of 1:400 or 1:200; cited from earlier work.
Data set [3] concerns the target monoamine oxidase B. Conditions: reference compounds; read-out: inhibition of monoamine oxidase B IC50; cited from earlier work.
For data set [4] the following is noted: depressed outpatients; cited from earlier work.

Turning to `CC(C)=CCCC1(C)C(CC=C(C)C)CC2(CC=C(C)C)C(=O)C(CC=C(C)C)=C(O)C1(C(=O)C(C)C)C2=O` (stereo not shown) [Hyperforin, hyperforin], the degradation time in data set [1] is on record as 14 days. Further, the “antibacterial / antifungal / antibiotic effect” value in data set [2] is reported as “antibiotic effect greater than that of sulfonilamide”.
With `NCCNC(=O)c1cccc(I)c1` [N-(2-aminoethyl)-3-iodobenzamide hydrochloride], the pIC50 in data set [3] was 5.77.
With `CCCC/N=C(/c1cc(Cl)ccc1O)c1ccccc1Cl` [fengabine], in data set [4], the antidepressant effects entry is recorded as “antidepressant effects”.
